In general, IC50 refers to the point on the concentration scale where inhibition reaches its midpoint.

Where a name gives a salt, the structure may show the parent alone. Read-outs that look alike come from different tables or passages of the source.

IC50 data for 21 compounds are collected here from US8609653B2, “Azaindole compounds and methods for treating HIV” (priority 2011, dated 2013).

The assay concerns HIV. The assay is described as follows: MT4 assay: antiviral HIV activity in MT-4 cells. The class given is cell-based. The note with it: read-out 96 hours later with cell titer glo, 10 point dose response. Here is the method: Antiviral HIV activity and cytotoxicity values for compounds of the invention from Table 1 were measured in parallel in the HTLV-1 transformed cell line MT-4 based on the method previously described (Hazen et al., 2007, In vitro antiviral activity of the novel, tyrosyl-based human immunodeficiency virus (HIV) type 1 protease inhibitor brecanavir (GW640385) in combination with other antiretrovirals and against a panel of protease inhibitor-resistant HIV (Hazen et al., “In vitro antiviral activity of the novel, tyrosyl-based human immunodeficiency virus (HIV) type 1 protease inhibitor brecanavir (GW640385) in combination with other antiretrovirals and against a panel of protease inhibitor-resistant HIV”, Antimicrob. Agents Chemother. 2007, 51: 3147-3154; and Pauwels et al., “Sensitive and rapid assay on MT-4 cells for the detection of antiviral compounds against the AIDS virus”, J. of Virological Methods 1987, 16: 171-185).
Luciferase activity was measured 96 hours later by adding a cell titer glo (Promega, Madison, Wis.). Percent inhibition of cell protection data was plotted relative to no compound control. Under the same condition, cytotoxicity of the compounds was determined using cell titer Glo™ (Promega, Madison, Wis.). IC50s were determined from a 10 point dose response curve using 3-4-fold serial dilution for each compound, which spans a concentration range>1000 fold.
These values are plotted against the molar compound concentrations using the standard four parameter logistic equation: y=((Vmax*x^n)/(K^n+x^n))+Y2
Y2=minimum y n=slope factor
Vmax=maximum y x=compound concentration [M]
(Cellular ATP, detected with luciferase, serves as a proxy for viable cell number.)

[1] abbreviates: Human immunodeficiency virus 1, MT4, 96 h, read-out: HIV MT4 Assay IC50 (μM), HTLV-1 transformed cell line MT-4.

`Cc1nc2c(ccn2Cc2ccc(F)c(F)c2)c(-c2ccc3c(c2C)CCCO3)c1[C@H](OC(C)(C)C)C(=O)O` (atropisomer, axis not shown; (M)) [Example 87, (2S)(M)-2-(tert-Butoxy)-2-(1-(3,4-difluorobenzyl)-6-methyl-4-(5-methylchroman-6-yl)-1H-pyrrolo[2,3-b]pyridin-5-yl)acetic acid]: under setting [1], the half-inhibitory concentration (IC50) worked out at 0.005 µM. On the same count and under the same terms, in the case of `Cc1nc2c(ccn2Cc2ccc(F)c(F)c2)c(-c2cc(Cl)c3c(c2C)CCCO3)c1[C@H](OC(C)(C)C)C(=O)O` (atropisomer, axis not shown; (M)) [Example 95, (2S)(M)-2-(tert-butoxy)-2-(4-(8-chloro-5-methylchroman-6-yl)-1-(3,4-difluorobenzyl)-6-methyl-1H-pyrrolo[2,3-b]pyridin-5-yl)acetic acid] it was 0.04 µM; in that of `Cc1nc2c(ccn2Cc2ccc(F)c(F)c2)c(-c2cc(F)c3c(c2C)CCCO3)c1[C@H](OC(C)(C)C)C(=O)O` (atropisomer, axis not shown; (M)) [Example 96, (2S)(M)-2-(tert-butoxy)-2-(1-(3,4-difluorobenzyl)-4-(8-fluoro-5-methylchroman-6-yl)-6-methyl-1H-pyrrolo[2,3-b]pyridin-5-yl)acetic acid], 0.006 µM. On the same count and under the same terms, in the case of `Cc1nc2c(ccn2Cc2ccc(F)c(F)c2)c(-c2ccc3c(c2C)NCCO3)c1[C@H](OC(C)(C)C)C(=O)O` (atropisomer, axis not shown; (M)) [Example 97, (2S)(M)-2-(tert-butoxy)-2-(1-(3,4-difluorobenzyl)-6-methyl-4-(5-methyl-3,4-dihydro-2H-benzo[b][1,4]oxazin-6-yl)-1H-pyrrolo[2,3-b]pyridin-5-yl)acetic acid, trifluoroacetic acid salt] it was 0.012 µM; in that of `Cc1nc2c(ccn2Cc2cccc(F)c2F)c(-c2cc(Cl)c3c(c2C)CCCO3)c1[C@H](OC(C)(C)C)C(=O)O` (atropisomer, axis not shown; (M)) [Example 98, (2S(M))-2-(tert-butoxy)-2-(4-(8-chloro-5-methylchroman-6-yl)-1-(2,3-difluorobenzyl)-6-methyl-1H-pyrrolo[2,3-b]pyridin-5-yl)acetic acid], 0.181 µM.

Turning to `Cc1nc2c(ccn2Cc2cccc(F)c2F)c(-c2ccc3c(c2C)CCCO3)c1[C@H](OC(C)(C)C)C(=O)O` (atropisomer, axis not shown; (M)) [Example 99, (2S)(M)-2-(tert-butoxy)-2-(1-(2,3-difluorobenzyl)-6-methyl-4-(5-methylchroman-6-yl)-1H-pyrrolo[2,3-b]pyridin-5-yl)acetic acid], under setting [1], the half-maximal inhibitory concentration (IC50) worked out at 0.008 µM. As to `Cc1ccc(-c2c([C@H](OC(C)(C)C)C(=O)O)c(C)nc3c2ccn3Cc2ccc(F)c(F)c2)c(C)c1` (atropisomer, axis not shown; (M)) [Example 101, (2S)(M)-2-(tert-butoxy)-2-(1-(3,4-difluorobenzyl)-4-(2,4-dimethylphenyl)-6-methyl-1H-pyrrolo[2,3-b]pyridin-5-yl)acetic acid], under setting [1], the IC50 turned out to be 0.09 µM. With `Cc1nc2c(ccn2Cc2cccc(F)c2F)c(-c2ccc3c(c2C)NCCO3)c1[C@H](OC(C)(C)C)C(=O)O` (atropisomer, axis not shown; (M)) [Example 104, (S)-2-(tert-Butoxy)-2-((M)-1-(2,3-difluorobenzyl)-6-methyl-4-(5-methyl-3,4-dihydro-2H-benzo[b][1,4]oxazin-6-yl)-1H-pyrrolo[2,3-b]pyridin-5-yl)acetic acid], the IC50 under setting [1] was 0.013 µM. Consider `Cc1nc2c(c(-c3ccc4c(c3C)CCCO4)c1[C@H](OC(C)(C)C)C(=O)O)CCN2` (atropisomer, axis not shown; (M)) [Example 108, (2S)(M)-2-(tert-Butoxy)-2-(6-methyl-4-(5-methylchroman-6-yl)-2,3-dihydro-1H-pyrrolo[2,3-b]pyridin-5-yl)acetic acid], for which the IC50 under setting [1] was determined as 0.44 µM. In the case of `Cc1nc2c(ccn2Cc2ccc(F)c(F)c2)c(-c2cc3c(cc2F)OCCC3)c1[C@H](OC(C)(C)C)C(=O)O` (atropisomer, axis not shown; (M)) [Example 109, (2S)(M)-2-(tert-butoxy)-2-(1-(3,4-difluorobenzyl)-4-(7-fluorochroman-6-yl)-6-methyl-1H-pyrrolo[2,3-b]pyridin-5-yl)acetic acid], the 50% inhibitory concentration (IC50) under setting [1] stood at 0.015 µM.

For `COc1ccc(-c2c([C@H](OC(C)(C)C)C(=O)O)c(C)nc3c2ccn3Cc2ccc(F)c(F)c2)c(C)c1` (atropisomer, axis not shown; (M)) [Example 111, (2S)(M)-2-(tert-Butoxy)-2-(1-(3,4-difluorobenzyl)-4-(4-methoxy-2-methylphenyl)-6-methyl-1H-pyrrolo[2,3-b]pyridin-5-yl)acetic acid], under setting [1], the concentration for half-maximal inhibition (IC50) amounted to 0.037 µM. For the compound `Cc1nc2c(ccn2Cc2ccc(F)c(F)c2)c(-c2ccc3c(c2Cl)NCCO3)c1[C@H](OC(C)(C)C)C(=O)O` (atropisomer, axis not shown; (M)) [Example 113, (2S)(2M)-2-(tert-Butoxy)-2-(4-(5-chloro-3,4-dihydro-2H-benzo[b][1,4]oxazin-6-yl)-1-(3,4-difluorobenzyl)-6-methyl-M-pyrrolo[2,3-b]pyridin-5-yl)acetic acid, Trifluoroacetic acid salt], the IC50 under setting [1] amounted to 0.009 µM.

Take `Cc1nc2c(ccn2Cc2ccc(F)c(F)c2)c(-c2ccc3c(c2Cl)N(C)CCO3)c1[C@H](OC(C)(C)C)C(=O)O` (atropisomer, axis not shown; (M)) [Example 116, (2S)(M)-2-(tert-Butoxy)-2-(4-(5-chloro-4-methyl-3,4-dihydro-2H-benzo[b][1,4]oxazin-6-yl)-1-(3,4-difluorobenzyl)-6-methyl-1H-pyrrolo[2,3-b]pyridin-5-yl)acetic acid, Trifluoroacetic acid salt]: the IC50 under setting [1] came to 0.022 µM. In the case of `Cc1nc2c(c(-c3ccc4c(c3C)NCCO4)c1[C@H](OC(C)(C)C)C(=O)O)CCN2Cc1cccc(F)c1F` (atropisomer, axis not shown; (M)) [Example 118, (2S)(M)-2-(tert-butoxy)-2-(1-(2,3-difluorobenzyl)-6-methyl-4-(5-methyl-3,4-dihydro-2H-benzo[b][1,4]oxazin-6-yl)-2,3-dihydro-1H-pyrrolo[2,3-b]pyridin-5-yl)acetic acid, trifluoroacetic acid salt], the IC50 under setting [1] came out at 0.14 µM. On to `Cc1nc2c(c(-c3ccc4c(c3C)CCCO4)c1[C@H](OC(C)(C)C)C(=O)O)CCN2Cc1cccc(F)c1F` (atropisomer, axis not shown; (M)) [Example 119], for which, under setting [1], the concentration for half-maximal inhibition (IC50) came to 0.009 µM. Still for that read-out and setting: with `Cc1cc(F)ccc1Cn1ccc2c(-c3ccc4c(c3C)NCCO4)c([C@H](OC(C)(C)C)C(=O)O)c(C)nc21` (atropisomer, axis not shown; (M)) [Example 122, (2S)(M)-2-(tert-butoxy)-2-(1-(4-fluoro-2-methylbenzyl)-6-methyl-4-(5-methyl-3,4-dihydro-2H-benzo[b][1,4]oxazin-6-yl)-1H-pyrrolo[2,3-b]pyridin-5-yl)acetic acid] the figure was 0.014 µM; with `Cc1nc2c(ccn2Cc2ccc(F)c(F)c2)c(-c2ccc3c4c(ccnc24)CCO3)c1[C@H](OC(C)(C)C)C(=O)O` (atropisomer, axis not shown; (M)) [Example 124, (S)-2-(tert-butoxy)-2-(1-(3,4-difluorobenzyl)-4-((M)-2,3-dihydropyrano[4,3,2-de]quinolin-7-yl)-6-methyl-1H-pyrrolo[2,3-b]pyridin-5-yl)acetic acid], 0.035 µM. On to `Cc1nc2c(c3c(n2C)CCCC3)c(-c2ccc3c(c2C)NCCO3)c1[C@H](OC(C)(C)C)C(=O)O` (atropisomer, axis not shown; (M)) [Example 130, (2S)(M)-2-(tert-butoxy)-2-(2,9-dimethyl-4-(5-methyl-3,4-dihydro-2H-benzo[b][1,4]oxazin-6-yl)-6,7,8,9-tetrahydro-5H-pyrido[2,3-b]indol-3-yl)acetic acid, Trifluoroacetic acid salt], for which the half-maximal inhibitory concentration (IC50) (read-out: HIV MT4 Assay IC50, HTLV-1 transformed cell line MT-4, Trifluoroacetic acid salt) came out at 0.01 µM. With `Cc1nc2c(ccn2C)c(-c2cc(F)c3c(c2C)CCCO3)c1[C@H](OC(C)(C)C)C(=O)O` (atropisomer, axis not shown; (M)) [Example 131, (2S)(M)-2-(tert-butoxy)-2-(4-(8-fluoro-5-methylchroman-6-yl)-1,6-dimethyl-1H-pyrrolo[2,3-b]pyridin-5-yl)acetic acid, Trifluoroacetic acid salt], the half-maximal inhibitory concentration (IC50) under setting [1] amounted to 0.055 µM. On the same count and under the same terms, with `Cc1nc2c(ccn2Cc2cccc(F)c2F)c(-c2cc(F)c3c(c2C)NCCO3)c1[C@H](OC(C)(C)C)C(=O)O` (atropisomer, axis not shown; (M)) [Example 132] the figure was 0.021 µM.

Turning to `Cc1nc2c(ccn2Cc2ccc(F)c(F)c2)c(-c2ccc3c(c2C)NCCO3)c1[C@H](OC(C)(C)C)C(=O)O` (atropisomer, axis not shown; (P)) [Example 100, (2S)(P)-2-(tert-butoxy)-2-(1-(3,4-difluorobenzyl)-6-methyl-4-(5-methyl-3,4-dihydro-2H-benzo[b][1,4]oxazin-6-yl)-1H-pyrrolo[2,3-b]pyridin-5-yl)acetic acid, trifluoroacetic acid salt], under “HTLV-1 transformed cell line MT-4, trifluoroacetic acid salt, read-out: HIV MT4 Assay IC50”, the 50% inhibitory concentration (IC50) stood at 0.1 µM.
